Results reported in patent US9090944B2, “Biomarker DACT1 for gastric cancer” (The Chinese University of Hong Kong, priority 2011, dated 2015).

Legend:
AGS = test: Demethylation treatment with 5-Aza, DACT1 expression by semiquantitative RT-PCR; assay type: cell-based, human; settings: 2 μM 5-Aza for 5 days
Protocol: (§1) Semiquantitative RT-PCR was performed in a total volume of 25 μL reaction containing GeneAmp 1×PCR Buffer II (Applied Biosystems), 2.5 mM MgCl2, 200 μM each of dNTP, 200 nM each of primers, 0.5 U of AmpliTaq Gold DNA polymerase (Applied Biosystems) and 30˜50 ng cDNA. The PCR program started with an initial denaturation at 95° C. for 10 min, followed by 32-35 cycles (94° C. for 30 sec, annealing temperature for 30 sec, and 72° C. for 30 sec) of amplification, with a final extension at 72° C. for 10 min. The PCR bands were visualized under ultraviolet light and photographed. The expression of the target gene was normalized by the expression of house keeping gene β-actin, which served as an internal control. Cells were seeded at a density of […]/100-mm dishes and grew for 24 hr. Cells were then treated with 2 μM 5-aza-2′-deoxycytidine (“5-Aza”) (Sigma-Aldrich) for 5 days. The 5-Aza was replenished every day. The gene expression of DACT1 was evaluated using semiquantitative RT-PCR.

KatoIII = test: as above; assay type: cell-based, human; settings: 2 μM 5-Aza for 5 days
Protocol: as §1

## Nc1ncn([C@H]2C[C@H](O)[C@@H](CO)O2)c(=O)n1 [5-Aza, 5-aza-2′-deoxycytidine]
AGS
  DACT1 expression after demethylation treatment: restored DACT1 expression
KatoIII
  DACT1 expression after demethylation treatment: restored DACT1 expression
